# Measured values published in ChEMBL document CHEMBL1201862, “PubChem BioAssay data set” (2004).
#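 Cells were grown in 96-well plates and exposed to each compound for 48 hours at five concentrations; endpoints were interpolated linearly between bracketing concentrations, or set to the highest concentration if not reached. The concentration for 50% growth inhibition is given as GI50.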 Calls of active or inactive are those of the source. No stated cut-off is given here; in the data, active = GI50 up to about 1.1 µM and inactive = higher.
# What was measured:
# Assay in all cases: NCI tumour cell line growth inhibition, 48 h
# [1] = test system: HCT-15
# [2] = test system: SW-620
# [3] = test system: MDA-MB-435
# [4] = test system: SNB-19
# [5] = test system: SK-MEL-5
# [6] = test system: CCRF-CEM
# [7] = test system: DU-145
# [8] = test system: U-251
# [9] = test system: MDA-N
# [10] = test system: SK-MEL-2
# [11] = test system: MOLT-4
# [12] = test system: UO-31
# [13] = test system: HOP-92
# [14] = test system: UACC-62
# [15] = test system: OVCAR-4
# [16] = test system: SF-268
# [17] = test system: HT-29
# [18] = test system: UACC-257
# [19] = test system: HL-60
# [20] = test system: NCI-H23
# [21] = test system: HCT-116
# [22] = test system: SN12C
# [23] = test system: Hs-578T
# [24] = test system: NCI-H522
# [25] = test system: ACHN
# [26] = test system: KM12
# [27] = test system: MDA-MB-231
# [28] = test system: COLO 205
# [29] = test system: SF-539
# [30] = test system: OVCAR-8
# [31] = test system: EKVX
# [32] = test system: OVCAR-3
# [33] = test system: NCI-H460
# [34] = test system: IGROV-1
# [35] = test system: T47D
# [36] = test system: Malme-3M
# [37] = test system: SK-OV-3
# [38] = test system: RXF 393
# [39] = test system: PC-3
# [40] = test system: 786-0
# [41] = test system: TK-10
# [42] = test system: NCI-H226
# [43] = test system: CAKI-1
# [44] = test system: M14
# [45] = test system: LOX IMVI
# [46] = test system: BT-549
# [47] = test system: SK-MEL-28
# [48] = test system: OVCAR-5
# [49] = test system: NCI/ADR-RES
# [50] = test system: SF-295
# [51] = test system: A549
# [52] = test system: HOP-62
# [53] = test system: A498
# [54] = test system: RPMI-8226
# [55] = test system: K562
# [56] = test system: SNB-75
# [57] = test system: SR
# [58] = test system: HCC 2998
# [59] = test system: MCF7
smiles,measurement,setting,value
CC1(C)C=CC(=O)C(O)C(C)(C)C1=O (stereo unspecified),GI50,[1],51.2 µM
same,GI50,[2],77.6 µM (inactive)
same,GI50,[3],53.3 µM (inactive)
same,GI50,[4],> 100 µM (inactive)
same,GI50,[5],> 100 µM (inactive)
same,GI50,[6],0.13 µM (active)
same,GI50,[7],> 100 µM (inactive)
same,GI50,[8],> 100 µM (inactive)
same,GI50,[9],52.8 µM (inactive)
same,GI50,[10],> 100 µM (inactive)
same,GI50,[11],7.05 µM (inactive)
same,GI50,[12],> 100 µM (inactive)
same,GI50,[13],92.7 µM (inactive)
same,GI50,[14],52.8 µM (inactive)
same,GI50,[15],> 100 µM (inactive)
same,GI50,[16],30.1 µM (inactive)
same,GI50,[17],88.3 µM (inactive)
same,GI50,[18],18.8 µM (inactive)
same,GI50,[19],27.4 µM (inactive)
same,GI50,[20],76.7 µM (inactive)
same,GI50,[21],54.5 µM (inactive)
same,GI50,[22],> 100 µM (inactive)
same,GI50,[23],28.8 µM (inactive)
same,GI50,[24],19.9 µM (inactive)
same,GI50,[25],98.4 µM (inactive)
same,GI50,[26],65.8 µM (inactive)
same,GI50,[27],> 100 µM (inactive)
same,GI50,[28],> 100 µM (inactive)
same,GI50,[29],73.6 µM (inactive)
same,GI50,[30],59 µM (inactive)
same,GI50,[31],> 100 µM (inactive)
same,GI50,[32],29.1 µM (inactive)
same,GI50,[33],29.7 µM (inactive)
same,GI50,[34],89.1 µM (inactive)
same,GI50,[35],> 100 µM (inactive)
same,GI50,[36],17.5 µM (inactive)
same,GI50,[37],> 100 µM (inactive)
same,GI50,[38],66.5 µM (inactive)
same,GI50,[39],> 100 µM (inactive)
same,GI50,[40],96.2 µM (inactive)
same,GI50,[41],51.5 µM (inactive)
same,GI50,[42],> 100 µM (inactive)
same,GI50,[43],> 100 µM (inactive)
same,GI50,[44],> 100 µM (inactive)
same,GI50,[45],28.7 µM (inactive)
same,GI50,[46],68.1 µM (inactive)
same,GI50,[47],> 100 µM (inactive)
same,GI50,[48],> 100 µM (inactive)
same,GI50,[49],72.4 µM (inactive)
same,GI50,[50],75.3 µM (inactive)
same,GI50,[51],> 100 µM (inactive)
same,GI50,[52],53.6 µM (inactive)
same,GI50,[53],> 100 µM (inactive)
same,GI50,[54],21.3 µM (inactive)
same,GI50,[55],30.3 µM (inactive)
same,GI50,[56],38.7 µM (inactive)
CN1c2ccccc2SC2C(c3ccccc3)=NOC21 (stereo unspecified),GI50,[57],62.1 µM (inactive)
same,GI50,[1],15.5 µM
same,GI50,[2],25.1 µM (inactive)
same,GI50,[58],23.3 µM (inactive)
same,GI50,[4],73.3 µM (inactive)
same,GI50,[5],> 10 µM (inactive)
same,GI50,[6],> 100 µM (inactive)
same,GI50,[7],65.6 µM (inactive)
same,GI50,[8],38.5 µM (inactive)
same,GI50,[9],22.9 µM (inactive)
same,GI50,[10],38.5 µM (inactive)
same,GI50,[11],30.4 µM (inactive)
same,GI50,[12],35.1 µM (inactive)
same,GI50,[14],35.1 µM (inactive)
same,GI50,[15],65.8 µM (inactive)
same,GI50,[16],51.8 µM (inactive)
same,GI50,[17],30.1 µM (inactive)
same,GI50,[18],> 10 µM (inactive)
same,GI50,[19],53.7 µM (inactive)
same,GI50,[20],23.1 µM (inactive)
same,GI50,[21],23.7 µM (inactive)
same,GI50,[22],47.8 µM (inactive)
same,GI50,[23],29 µM (inactive)
same,GI50,[24],30.1 µM (inactive)
same,GI50,[25],52.6 µM (inactive)
same,GI50,[26],47.8 µM (inactive)
same,GI50,[27],27 µM (inactive)
same,GI50,[28],22.7 µM (inactive)
same,GI50,[29],27.7 µM (inactive)
same,GI50,[30],49.3 µM (inactive)
same,GI50,[31],24.9 µM (inactive)
same,GI50,[32],56.1 µM (inactive)
same,GI50,[33],28.5 µM (inactive)
same,GI50,[34],41.6 µM (inactive)
same,GI50,[35],21.5 µM (inactive)
same,GI50,[59],42.7 µM (inactive)
same,GI50,[36],8.39 µM (inactive)
same,GI50,[37],64.1 µM (inactive)
same,GI50,[38],> 100 µM (inactive)
same,GI50,[39],18 µM (inactive)
same,GI50,[40],35.4 µM (inactive)
same,GI50,[41],16.2 µM (inactive)
same,GI50,[42],47.6 µM (inactive)
same,GI50,[43],40.6 µM (inactive)
same,GI50,[44],38.2 µM (inactive)
same,GI50,[46],26.6 µM (inactive)
same,GI50,[47],31.1 µM (inactive)
same,GI50,[48],94.8 µM (inactive)
same,GI50,[49],29.8 µM (inactive)
same,GI50,[50],30.7 µM (inactive)
same,GI50,[51],36.5 µM (inactive)
same,GI50,[52],33.8 µM (inactive)
same,GI50,[53],28.4 µM (inactive)
same,GI50,[55],22.6 µM (inactive)
same,GI50,[56],16 µM (inactive)
